The values that follow are results of earlier work, collected in article PMC10651775 (Blood, 2022).

The test system of data set [1] is R/R ATL. The settings on record: phase 2 study (5/16); cited from earlier work.
Data set [2] relates to R/R ATL. The settings on record: phase 2 study (3/12); cited from earlier work.

Like-named read-outs stand apart in the source and are kept apart here.

`Nc1cccc2c1CN(C1CCC(=O)NC1=O)C2=O` (centres unmarked) [lenalidomide]: the “ORR in nodal or extranodal lesions” value in the data set on R/R ATL [1] was 31%.

B1: mogamulizumab: defucosylated anti-CCR4 antibody (antibody, chains of the INN, looked up, V domains shown)
VH: EVQLVESGGDLVQPGRSLRLSCAASGFIFSNYGMSWVRQAPGKGLEWVATISSASTYSYYPDSVKGRFTISRDNAKNSLYLQMNSLRVEDTALYYCGRHSDGNFAFGYWGQGTLVTVSS
VL: DVLMTQSPLSLPVTPGEPASISCRSSRNIVHINGDTYLEWYLQKPGQSPQLLIYKVSNRFSGVPDRFSGSGSGTDFTLKISRVEAEDVGVYYCFQGSLLPWTFGQGTKVEIK
Consider B1, for which the “ORR in nodal or extranodal lesions” value with R/R ATL [2] was 25%.
